Where two headings read alike, the source gives them in different places.

This note sets out measurements from US20250313563A1, “GLYCOGEN SYNTHASE KINASE 3 INHIBITORS AND USES THEREOF” (The Broad Institute, Inc., priority 2022, published 2025).

In experiment [1] the target is GSK3α (GST-full length GSK3α) (Homo sapiens (Human), UniProt P49840). The experiment can be described thus: GSK3α TR-FRET kinase assay. It is filed as biochemical. The procedure, abridged: (§1)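 Compound was preincubated 30 min with 1 nM GST-GSK3 enzyme. Reaction ran 100 min at ambient temperature in Tris pH 7.5/MgCl2 with 200 nM biotinylated pS645-glycogen synthase 631-650 peptide and ATP (4 μM GSK3α, 2 μM GSK3b, or 1 mM). The EDTA-stopped reaction was read by TR-FRET (Tb-anti-pSer641/streptavidin-d2), and IC50s were fitted.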
Sequence of GSK3α (GST-full length GSK3α) (P49840 whole entry): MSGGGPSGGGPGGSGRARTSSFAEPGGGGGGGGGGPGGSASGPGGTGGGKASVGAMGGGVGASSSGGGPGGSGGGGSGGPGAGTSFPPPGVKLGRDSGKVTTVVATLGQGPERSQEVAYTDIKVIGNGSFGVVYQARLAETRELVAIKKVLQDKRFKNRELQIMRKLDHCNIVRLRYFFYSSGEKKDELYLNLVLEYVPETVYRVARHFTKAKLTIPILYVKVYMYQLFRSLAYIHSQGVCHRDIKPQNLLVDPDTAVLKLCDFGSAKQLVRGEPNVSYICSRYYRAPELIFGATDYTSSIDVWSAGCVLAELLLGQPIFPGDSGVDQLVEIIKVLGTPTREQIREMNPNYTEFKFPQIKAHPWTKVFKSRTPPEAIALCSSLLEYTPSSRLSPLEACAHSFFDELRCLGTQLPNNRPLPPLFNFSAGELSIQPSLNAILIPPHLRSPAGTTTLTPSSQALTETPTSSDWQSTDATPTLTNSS

Experiment [2] addresses GSK3b (GST-full length GSK3b) (Homo sapiens (Human), UniProt P49841). The experiment can be described thus: GSK3b TR-FRET kinase assay. Type of experiment: biochemical. The procedure, abridged: as §1
Setting [3] is: 1 nM GSK3α, 4 μM ATP, 30 minute preincubation, geometric mean, read-out: GSK3-A TR-FRET BIOCHEMICAL (TR-FRET), GMean, IC50.
Where [4] appears, read: read-out: GSK3-A (TR-FRET 1 mM ATP), GMean, IC50, 1 mM ATP, geometric mean.
Setting [5] is: 1 nM GSK3b, 2 μM ATP, 30 minute preincubation, geometric mean, read-out: GSK3-B TR-FRET BIOCHEMICAL (TR-FRET), GMean, IC50.
Setting [6] is: read-out: GSK3-B (TR-FRET 1 mM ATP), GMean, IC50, 1 mM ATP, geometric mean.
The mark [7] stands for this setting: 1 nM GSK3α, 4 μM ATP, 30 minute preincubation, Table 16, read-out: GSK3-A TR-FRET BIOCHEMICAL (TR-FRET).
The mark [8] stands for this setting: 1 nM GSK3b, 2 μM ATP, 30 minute preincubation, Table 16, read-out: GSK3-B TR-FRET BIOCHEMICAL (TR-FRET).
Setting [9] is: 1 nM GSK3α, 4 μM ATP, 30 minute preincubation, Table 16, read-out: GSK3-A TR-FRET BIOCHEMICAL (TR-FRET), IC50.
[10] abbreviates: 1 nM GSK3b, 2 μM ATP, 30 minute preincubation, Table 16, read-out: GSK3-B TR-FRET BIOCHEMICAL (TR-FRET), IC50.

Sequence of GSK3b (GST-full length GSK3b) (P49841 whole entry): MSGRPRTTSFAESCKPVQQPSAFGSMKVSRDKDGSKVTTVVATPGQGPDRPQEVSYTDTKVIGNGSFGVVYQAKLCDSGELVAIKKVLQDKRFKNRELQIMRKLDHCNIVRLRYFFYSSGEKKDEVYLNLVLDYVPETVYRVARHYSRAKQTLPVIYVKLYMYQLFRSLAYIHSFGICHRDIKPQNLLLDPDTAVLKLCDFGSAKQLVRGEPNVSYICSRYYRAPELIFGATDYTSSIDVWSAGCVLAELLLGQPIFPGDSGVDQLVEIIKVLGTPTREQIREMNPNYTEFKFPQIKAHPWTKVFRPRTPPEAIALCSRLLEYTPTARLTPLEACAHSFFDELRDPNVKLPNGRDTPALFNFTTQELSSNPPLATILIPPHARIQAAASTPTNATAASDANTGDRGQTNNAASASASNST

`CC[C@]1(c2cccc(-c3cnn(C)c3C(F)(F)F)c2)C2=C(CC(C)(C)NC2=O)Nc2n[nH]cc21` [Compound 948815]: the IC50 in experiment [1] (setting [3]) is at most 0.1 µM; in experiment [1] (setting [4]) it was 0.1 to 1 µM; in experiment [2] (setting [5]), 0.1 to 1 µM; in experiment [2] (setting [6]), above 5 µM.
In the case of `Cn1ccc(S(=O)(=O)N2CCC3(CC2)C2=C(Nc4n[nH]cc43)[C@H](F)C(C)(C)CC2=O)n1` [Compound 951709], the IC50 was at most 0.1 µM in experiment [1] (setting [7]) and 0.1 to 1 µM in experiment [2] (setting [8]).
For `CC[C@@]1(c2cccc(-c3ccnc4c(Cl)cccc34)c2)C2=C(CC(C)(C)NC2=O)Nc2n[nH]cc21` [Compound 948650], the IC50 in experiment [1] (setting [3]) and in experiment [2] (setting [5]) was above 5 µM each time.
For `CC1(C)CC(=O)C2=C(C1)Nc1n[nH]cc1C21Cc2ccccc2C1` [Compound 897752], the results for the IC50 in experiment [1] (setting [7]) and in experiment [2] (setting [8]) were at most 0.1 µM and 0.1 to 1 µM, respectively.
The like results for `CC[C@@]1(c2cccc(-c3ccnc4c3CCCC4)c2)C2=C(CC(C)(C)CC2=O)Nc2n[nH]cc21` [Compound 944036] were, in that order, 1 to 5 µM and above 5 µM.
`CC[C@]1(c2cccc(C(F)F)c2)C2=C(CC(C)(C)NC2=O)Nc2n[nH]c(C(F)(F)F)c21` [Compound 951946]: the IC50 in experiment [1] (setting [9]) fell in the range of 0.1 to 1 µM; in experiment [2] (setting [10]) it was 1 to 5 µM.
Regarding `CCC1(c2cccc(C(F)(F)F)c2)C2=C(Nc3n[nH]cc31)C(F)C(C)(C)CC2=O` (single isomer, unassigned) [Compound 837753, 4-ethyl-8-fluoro-7,7-dimethyl-4-(3-(trifluoromethyl)phenyl)-2,4,6,7,8,9-hexahydro-5H-pyrazolo[3,4-b]quinolin-5-one], the IC50 in experiment [1] (setting [3]) was 0.1 to 1 µM; in experiment [1] (GSK3-A (TR-FRET 1 mM ATP), GMean, IC50, 1 mM ATP, geometric mean) it was above 5 µM; in experiment [2] (setting [5]), above 5 µM; in experiment [2] (GSK3-B (TR-FRET 1 mM ATP), GMean, IC50, 1 mM ATP, geometric mean), above 5 µM.
Take `CCC1(c2cccc(C(F)(F)F)c2)C2=C(CN(Cc3ccccc3)C2=O)Nc2n[nH]cc21` (stereo not drawn) [Compound 917159]: the IC50 is at most 0.1 µM in experiment [1] (setting [7]) and 0.1 to 1 µM in experiment [2] (setting [8]).
For the molecule `C[C@H]1C[C@@]2(CCN1S(=O)(=O)c1ccn(C)n1)C1=C(CC(C)(C)CC1=O)Nc1n[nH]cc12` [Compound 926815], the IC50 in experiment [1] (setting [7]) and in experiment [2] (setting [8]) was at most 0.1 µM each time.
As to `CC[C@@]1(c2cccc(-c3c(C)cncc3C)c2)C2=C(CC(C)(C)NC2=O)Nc2n[nH]cc21` [Compound 948829], the IC50 in experiment [1] (setting [3]) and in experiment [2] (setting [5]) was above 5 µM throughout.
`CC[C@]1(c2ccccc2)C2=C(Nc3n[nH]cc31)[C@@H](C)C[C@@H](C)C2=O` [Compound 909217]: the values for the IC50 in experiment [1] (setting [9]) and in experiment [2] (setting [10]) were 0.1 to 1 µM and 1 to 5 µM, respectively.
On to `CC1(C)CC(=O)C2=C(C1)Nc1n[nH]cc1[C@]21CCO[C@@H](C(F)(F)F)C1` [Compound 884021], for which the IC50 in experiment [1] (setting [7]) and in experiment [2] (setting [8]) was 0.1 to 1 µM in each case.
In the case of `CCC1(c2cccc(-c3cnnc(C)c3)c2)C2=C(CC(C)(C)CC2=O)Nc2n[nH]cc21` (stereo not drawn) [Compound 926844], the values for the IC50 in experiment [1] (setting [9]) and in experiment [2] (setting [10]) were at most 0.1 µM and 0.1 to 1 µM, respectively.
As to `CCC1(c2cccc(-c3cn(C)nc3C)c2)C2=C(CC(C)(C)N(C)C2=O)Nc2n[nH]cc21` (stereo not drawn) [Compound 949005], the IC50 was at most 0.1 µM in experiment [1] (setting [3]), at most 0.1 µM in experiment [1] (setting [4]), at most 0.1 µM in experiment [2] (setting [5]) and 1 to 5 µM in experiment [2] (setting [6]).
In the case of `CCC1(c2cccc(C(F)(F)F)c2)C2=C(CCN(c3cnn(C)c3C)C2=O)Nc2n[nH]cc21` (stereo not drawn) [Compound 950612], the IC50 is at most 0.1 µM in experiment [1] (setting [9]) and 1 to 5 µM in experiment [2] (setting [10]).
On to `CCC1(c2cccc(OC)c2)C2=C(CC(C)(C)CC2=O)Nc2n[nH]c(C(=O)OC)c21` (stereo not drawn) [Compound 901480], for which the values for the IC50 in experiment [1] (setting [9]) and in experiment [2] (setting [10]) were at most 0.1 µM and 0.1 to 1 µM, respectively.
In the case of `CCC1(c2cccc(-c3ccnc4c3CCC4)c2)C2=C(CC(C)(C)NC2=O)Nc2n[nH]c(C)c21` (stereo not drawn) [Compound 947675], the IC50 in experiment [1] (setting [3]) was at most 0.1 µM; in experiment [2] (setting [5]), 0.1 to 1 µM.
On to `CC[C@@]1(c2cccc(-c3ccncc3CO)c2)C2=C(CC(C)(C)CC2=O)Nc2n[nH]cc21` [Compound 945469], for which the IC50 in experiment [1] (setting [7]) and in experiment [2] (setting [8]) was at most 0.1 µM throughout.
